Counter-ions that a name gives are not always drawn.
Target: T1, Calcium sensing receptor (hCaSR) (Homo sapiens, UniProt P41180)
T1 construct: expressed in transfected cells
T1 sequence (P41180 20-1078): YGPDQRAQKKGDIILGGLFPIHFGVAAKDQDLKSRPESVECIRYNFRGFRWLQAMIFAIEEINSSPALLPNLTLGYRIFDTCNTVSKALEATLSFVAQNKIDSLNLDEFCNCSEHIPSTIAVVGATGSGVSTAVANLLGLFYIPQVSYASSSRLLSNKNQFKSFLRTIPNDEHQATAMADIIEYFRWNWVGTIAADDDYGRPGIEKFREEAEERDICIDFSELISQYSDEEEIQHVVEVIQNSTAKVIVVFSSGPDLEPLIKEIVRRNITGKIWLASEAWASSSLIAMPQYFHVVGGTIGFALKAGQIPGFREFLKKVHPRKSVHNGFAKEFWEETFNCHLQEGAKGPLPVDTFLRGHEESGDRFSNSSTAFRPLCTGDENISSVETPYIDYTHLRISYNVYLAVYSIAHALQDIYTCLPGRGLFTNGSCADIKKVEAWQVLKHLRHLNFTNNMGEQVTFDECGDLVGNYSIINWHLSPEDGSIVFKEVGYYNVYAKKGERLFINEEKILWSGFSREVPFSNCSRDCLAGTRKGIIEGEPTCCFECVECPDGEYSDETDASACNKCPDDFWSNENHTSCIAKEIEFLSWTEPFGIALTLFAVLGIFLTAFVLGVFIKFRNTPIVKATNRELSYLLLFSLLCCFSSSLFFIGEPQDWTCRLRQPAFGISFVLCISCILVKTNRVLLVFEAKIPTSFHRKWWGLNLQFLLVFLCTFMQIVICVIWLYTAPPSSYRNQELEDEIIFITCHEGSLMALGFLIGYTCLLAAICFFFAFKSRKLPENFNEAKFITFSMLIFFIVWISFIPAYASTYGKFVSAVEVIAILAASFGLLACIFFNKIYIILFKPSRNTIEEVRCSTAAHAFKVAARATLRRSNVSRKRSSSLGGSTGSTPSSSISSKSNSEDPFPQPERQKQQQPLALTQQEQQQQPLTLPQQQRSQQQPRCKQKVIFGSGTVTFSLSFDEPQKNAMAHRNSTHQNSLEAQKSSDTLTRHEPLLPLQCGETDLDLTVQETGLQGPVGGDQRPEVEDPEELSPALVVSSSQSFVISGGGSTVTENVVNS
Experiment: In-vitro assay of calcimimetics through modulation of calcium sensing receptor: increase in intracellular calcium [Ca2+]i, FLIPR
Type: cell-based
Conditions: stably transfected HEK293 cells expressing hCaSR; Fluo4NW dye; 0.3 mM CaCl2; 8-point assay; read-out: EC50 Range
Description: In-Vitro Assay Method of Calcimemtics Through Modulation of Calcium Sensing Receptor (CaSR):
The ability of the compounds to modulate Calcium sensing receptor is determined by measuring an increase in intracellular calcium [Ca^2+]i. Stably transfected HEK293 cells expressing hCaSR_pTriEx-3 hygro vector are developed. Cells are grown overnight on a 96-well plate to 80% confluency in Ham's F12 containing 20% FBS at 37° C., 5% CO2. Subsequently, cells are washed extensively with 20 mM HEPES buffer containing 126 mM NaCl, 1 mM MgCl2 and 4 mM KCl to remove serum components that might interfere with the assay. Cells are loaded with calcium sensing Fluo4NW dye in HEPES base buffer containing 0.1% BSA and 1 mg/ml glucose for 30 minutes to measure changes in intracellular calcium. The activities of the compounds are measured in FLIPR using 0.3 mM CaCl2 in 20 mM HEPES base buffer. The effectiveness of the compound to modulate receptor activity is determined by calculating the EC50 responses for that compound in an 8-point assay and plotted using GraphPad Prism 5.

Cc1ccc(N2CC(CN[C@H](C)c3cccc4ccccc34)Oc3ccccc32)c(C)c1C(=O)O (single isomer, unassigned) [Example 70b, hydrochloride]
EC50: < 20 nM

C[C@@H](NCC1CN(c2cccc(CCC(=O)O)c2)c2ccccc2O1)c1cccc2ccccc12 (single isomer, unassigned) [Example 68b, hydrochloride]
EC50: 50 to 200 nM

COC(=O)c1cc(N2CC(CN[C@H](C)c3cccc4ccccc34)Oc3ccccc32)ccc1C (single isomer, unassigned) [Example 31a]
EC50: 20 to 50 nM

C[C@@H](NCC1CN(c2ccc(C(F)(F)F)c(C(=O)O)c2)c2ccccc2O1)c1cccc2ccccc12 (single isomer, unassigned) [Example 60a, hydrochloride]
EC50: 20 to 50 nM

Cc1ccc(N2CC(CCN[C@H](C)c3cccc4ccccc34)Oc3ccccc32)cc1C(=O)O (single isomer, unassigned) [Example 133b, hydrochloride]
EC50: < 20 nM

Cc1ccc(N2CC(CCN[C@H](C)c3cccc4ccccc34)Oc3ccc(F)cc32)cc1C(=O)O (single isomer, unassigned) [Example 166a, hydrochloride]
EC50: < 20 nM

C[C@@H](NCCC1CN(c2cccc(OCC(=O)O)c2)c2cc(F)ccc2O1)c1cccc2ccccc12 (single isomer, unassigned) [Example 169a, hydrochloride]
EC50: < 20 nM

Cc1cc(N2CC(CCN[C@H](C)c3cccc4ccccc34)Oc3ccccc32)ccc1OCC(=O)O (stereo partly drawn) [Example 144a, 2-(2-Methyl-4-(2-(2-(((R)-1-(naphlhalen-1-yl)ethyl)amino)ethyl)-2H-benzo[b] [1,4]oxazin-4(3H)-yl)phenoxy)aceticacid hydrochloride]
EC50: < 20 nM

C[C@@H](NCC1CN(c2ccc(Cl)c(C(=O)O)c2)c2ccccc2O1)c1cccc2ccccc12 (single isomer, unassigned) [Example 75b, hydrochloride]
EC50: 50 to 200 nM

C[C@@H](NCC1CN(c2ccc(O)c(C(=O)O)c2)c2ccccc2O1)c1cccc2ccccc12 (single isomer, unassigned) [Example 66a, hydrochloride]
EC50: 20 to 50 nM

Cc1cc(N2CC(CCN[C@H](C)c3cccc4ccccc34)Oc3ccccc32)ccc1C(=O)O (stereo partly shown) [Example 134a, 2-Melhyl-4-(2-(2-(((R-1-(naphthalen-1-yl)ethyl)amino)ethyl)-2H-benzo[b] [1,4]oxazin-4(3H)-yl)benzoic acid hydrochloride]
EC50: 50 to 200 nM

C[C@@H](NCCC1CN(c2ccc(CC(=O)O)cc2)c2ccccc2O1)c1cccc2ccccc12 (stereo partly drawn) [Example 143a, 2-(4-(2-(2-(((R)-1-(Naphthalen-1-yl)ethyl)amino)ethyl)-2H-benzo[b][1,4]oxazin-4(3H)-yl)phenyl) acetic acid hydrochloride]
EC50: 50 to 200 nM

C[C@@H](NCC1CN(c2cccc(CC(=O)O)c2)c2ccccc2O1)c1cccc2ccccc12 (stereo partly drawn) [Example 69, 2-(3-(2-((((R)-1-(Naphthalen-1-yl)ethyl)amino)methyl)-2H-benzo [b][1,4]oxazin-4(3H)-yl)phenyl)acetic acid hydrochloride]
EC50: 50 to 200 nM

COc1ccc(N2CC(CN[C@H](C)c3cccc4ccccc34)Oc3ccccc32)cc1C(=O)O (single isomer, unassigned) [Example 67b, hydrochloride]
EC50: 50 to 200 nM

C[C@@H](NCCC1CN(c2ccc(OCC(=O)O)cc2)c2c(F)cccc2O1)c1cccc2ccccc12 (single isomer, unassigned) [Example 172a, hydrochloride]
EC50: < 20 nM

Cc1ccc(N2CC(CCN[C@H](C)c3cccc4ccccc34)Oc3c(F)cccc32)cc1C(=O)O (single isomer, unassigned) [Example 159a, hydrochloride]
EC50: 20 to 50 nM

Cc1cc(N2CC(CN[C@H](C)c3cccc4ccccc34)Oc3ccccc32)ccc1C(=O)O (single isomer, unassigned) [Example 73b, hydrochloride]
EC50: < 20 nM

Cc1c(C(=O)O)cccc1N1CC(CN[C@H](C)c2cccc3ccccc23)Oc2ccccc21 (single isomer, unassigned) [Example 58a, hydrochloride]
EC50: 20 to 50 nM

C[C@@H](NCCC1CN(c2ccc(CCC(=O)O)cc2)c2ccccc2O1)c1cccc2ccccc12 (stereo partly drawn) [Example 139a, 3-(4-(2-(2-(((R)-1-(Naphlhalen-1-yl)ethyl)amino)ethyl)-2H-benzo [b][1,4]oxazin-4(3H)-yl)phenyl)propanoic acid hydrochloride]
EC50: < 20 nM

Cc1cc(C(=O)O)cc(N2CC(CN[C@H](C)c3cccc4ccccc34)Oc3ccccc32)c1 (single isomer, unassigned) [Example 62a, hydrochloride]
EC50: 50 to 200 nM

C[C@@H](NCCC1CN(c2ccc(OCC(=O)O)cc2)c2cc(F)ccc2O1)c1cccc2ccccc12 (single isomer, unassigned) [Example 168a]
EC50: < 20 nM

C[C@@H](NCCC1CN(c2cccc(C(=O)O)c2)c2cccc(F)c2O1)c1cccc2ccccc12 (single isomer, unassigned) [Example 160a, hydrochloride]
EC50: < 20 nM

C[C@@H](NCCC1CN(c2ccc(OCC(=O)O)cc2)c2cccc(F)c2O1)c1cccc2ccccc12 (single isomer, unassigned) [Example 164a, hydrochloride]
EC50: < 20 nM

COC(=O)c1cc(N2CC(CN[C@H](C)c3cccc4ccccc34)Oc3ccccc32)ccc1C (single isomer, unassigned) [Example 31b]
EC50: < 20 nM

C[C@@H](NCC1CN(c2ccc(C(=O)O)c(C(F)(F)F)c2)c2ccccc2O1)c1cccc2ccccc12 (single isomer, unassigned) [Example 64b, hydrochloride]
EC50: < 20 nM

C[C@@H](NCCC1CN(c2cccc(C(=O)O)c2)c2cc(F)ccc2O1)c1cccc2ccccc12 (single isomer, unassigned) [Example 167a]
EC50: < 20 nM

C[C@@H](NCC1CN(c2cc(F)cc(C(=O)O)c2)c2ccccc2O1)c1cccc2ccccc12 (stereo partly drawn) [Example 72, 3-Fluoro-5-(2-((((R)-1-(naphthalen-1-yl)ethyl)amino)methyl)-2H-benzo [b][1,4]oxazin-4(3H)-yl) benzoic acid hydrochloride]
EC50: 50 to 200 nM

C[C@@H](NCC1CN(c2ccc(CCC(=O)O)cc2)c2ccccc2O1)c1cccc2ccccc12 (stereo partly drawn) [Example 48, 3-(4-(2-((((R)-1-(naphthalen-1-yl)ethyl)amino)methyl)-2H-benzo [b][1,4]oxazin-4(3H)-yl)phenyl)propanoic acid]
EC50: 50 to 200 nM

Cc1ccc(N2CC(CN[C@H](C)c3cccc4ccccc34)Oc3ccccc32)cc1OCC(=O)O (single isomer, unassigned) [Example 76a, hydrochloride]
EC50: < 20 nM

CCOC(=O)c1c(C)ccc(N2CC(CN[C@H](C)c3cccc4ccccc34)Oc3ccccc32)c1C (single isomer, unassigned) [Example 24b]
EC50: 20 to 50 nM

C[C@@H](NCC1CN(c2ccc(O)c(C(=O)O)c2)c2ccccc2O1)c1cccc2ccccc12 (single isomer, unassigned) [Example 66b, hydrochloride]
EC50: < 20 nM

C[C@@H](NCC1CN(c2cccc(C(=O)O)c2)c2ccccc2O1)c1cccc2ccccc12 (stereo partly drawn) [Example 41, 3-(2-((((R)-1-(Naphthalen-1-yl)ethyl)amino)methyl)-2H-benzo[b][1,4]oxazin-4(3H)-yl)benzoic acid hydrochloride]
EC50: 20 to 50 nM

COc1cc(C(=O)O)cc(N2CC(CN[C@H](C)c3cccc4ccccc34)Oc3ccccc32)c1 (stereo partly drawn) [Example 54, 3-Methoxy-5-(2-((((R)-1-(naphthalen-1-yl)ethyl)amino)methyl)-2H-benzo [b][1,4]oxazin-4(3H)-yl) benzoic acid hydrochloride]
EC50: 50 to 200 nM

C[C@@H](NCCC1CN(c2ccc(OCC(=O)O)cc2)c2ccc(F)cc2O1)c1cccc2ccccc12 (single isomer, unassigned) [Example 161a, hydrochloride]
EC50: < 20 nM

— US9464063B2, “Benzo [B] [1,4] oxazin derivatives as calcium sensing receptor modulators” (LUPIN ATLANTIS HOLDINGS SA, priority 2011, dated 2016)
